Results taken from patent US5180678A, “Uses of substantially pure interleukin-9 receptor” (Ludwig Institute for Cancer Research, priority 1992, dated 1993).

Assays:
TS1 cells = assay: Internalization of bound labelled rIL-9 (resistance to acid induced dissociation); assay type: cell-based, mouse; conditions: TS1 cells saturated at 4° C. with 3.3×10^-10 M labelled rIL-9, then 37° C.; after about one hour; acid pH 3.0 (FIG. 5)
Description: It is known that when cytokines are mixed with their receptors at 37° C., they bind thereto when incubated and this is generally followed by internalization of the cytokine. This is determined via testing for increased resistance to acid induced dissociation of bound radiolabel.
To test this for the labeled rIL-9, 7×10^6 TS1 cell/ml were incubated at 4° C. in binding medium as described supra, but lacking Na3 N, with either 3.3×10^-10 M labelled rIL-9, or this concentration of the labelled cytokine plus a 100 fold excess of unlabeled rIL-9. This saturates the cells. After three hours of incubation, the cells were washed with cold binding medium to remove unbound ligand, and the cells were transferred to medium lacking rIL-9, at a temperature of 37° C. At various time intervals, the cells were incubated for two minutes with either of 360 ul of binding medium, or with citrate buffer (50 mM, pH 2.5). Contact with citrate buffer, in effect, exposed the cells to a pH of 3.0.

IL-9R = biological target: T1, IL-9R (Mus musculus, UniProt Q01114); assay: Competitive binding of radiolabelled rIL-9 to TS1 cells (specificity of IL-9 binding); set-up: a number of different cell types were tested for the presence of the IL-9R molecule; endogenous in cells; conditions: competitor 6.1 × 10^-10 M; labelled rIL-9 6.1×10^-10 M, 10^6 TS1 cells, 3 h 4° C.; no competitor 4083 ± 16
T1 sequence (Q01114 38-468): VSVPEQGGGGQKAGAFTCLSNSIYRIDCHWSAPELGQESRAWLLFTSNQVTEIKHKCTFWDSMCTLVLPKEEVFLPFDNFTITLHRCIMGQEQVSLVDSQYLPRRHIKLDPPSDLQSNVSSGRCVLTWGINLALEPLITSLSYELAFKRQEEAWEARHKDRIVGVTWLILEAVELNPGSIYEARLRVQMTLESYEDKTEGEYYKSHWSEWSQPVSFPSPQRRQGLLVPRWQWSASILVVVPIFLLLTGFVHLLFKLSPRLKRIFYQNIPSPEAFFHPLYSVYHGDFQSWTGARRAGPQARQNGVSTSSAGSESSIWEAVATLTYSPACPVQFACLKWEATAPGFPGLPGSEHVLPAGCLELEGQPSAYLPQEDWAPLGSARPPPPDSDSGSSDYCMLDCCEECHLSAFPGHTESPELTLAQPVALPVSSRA
Description: In order to test whether the radioactive IL-9 would bind to TS1 cells which are mouse cells, which are IL-9 dependent, a competitive assay was carried out. Specifically, rIL-9 was incubated with TS1 cells in 140 ul of DMEM containing BSA (10 mg/ml) and Na3 N (10 mM). In order to determine the level of binding, a 100 fold excess of "cold", i.e., non-radiolabelledIL-9, was also mixed with the material. The rIL-9 was admixed at 6.1×10^-10 M, for three hours at 4° C., with 10^6 TS1 cells. Bound material was separated from free ligand via centrifugation over a layer of dibutyl and dioctyl phthalate (15:I). In addition, the experiments were repeated using various interleukins, interferon-γ ("INF-γ"), tumor necrosis factor ("TNF"), and granulocyte, macrophage colony stimulating factor ("GM-CSF"). All experiments were carried out in triplicate.

Bound Radioactivity (IL-9R): 1181 ± 123 cpm
Substance: IL-9: lymphokine interleukin-9, T-cell derived growth factor; in Tables II and III the 125I-labelled recombinant form is used
internalization of IL-9 (TS1 cells): most of the IL-9 was internalized
